From ChEMBL document CHEMBL5357057, “Pleosmaranes A-R, Isopimarane and 20-nor Isopimarane Diterpenoids with Anti-inflammatory Activities from the Mangrove Endophytic Fungus Pleosporales sp. HNQQJ-1” (J Nat Prod, 2024)

How the values were obtained:
[1] = test system: RAW264.7; assay: Anti-inflammatory activity in mouse RAW264.7 cells assessed as inhibition of LPS-induced NO production incubated for 24 hrs by Griess reagent based analysis; format: functional, cell-based; details: RAW264.7, 24 h
[2] = test system: RAW264.7; assay: Cytotoxicity against mouse RAW264.7 cells assessed as reduction in cell viability at 5 to 50 uM measured for 24 hrs by MTT assay; format: toxicity, cell-based; details: raw264.7, 24 h, dose 5-50 µM

Compound	IC50 [1] [µM]	Activity [2]
C=C[C@@]1(C)CCc2c(c(O)cc3c2CCCC3(C)C)C1	> 50	Non-Toxic
C=C[C@]1(C)C=C2C(=O)C[C@H]3C(C)(C)CC[C@@H](OC(C)=O)[C@]3(C)[C@@]2(O)CC1	33	Non-Toxic
C=C[C@@]1(C)CCc2c3c(cc(O)c2[C@@H]1OC)C(C)(C)CCC3	30	Non-Toxic
C=C[C@@]1(C)CCC2=C([C@H]3O[C@@H](OC)[C@@]24CCCC(C)(C)[C@@H]4[C@H]3OC(C)=O)[C@H]1O	37	Non-Toxic
C=C[C@@]1(C)CCc2c3c(cc(O)c2[C@@H]1OC)C(C)(C)[C@@H](O)CC3	35	Non-Toxic
C=C[C@@]1(C)CCc2c3c(cc(O)c2[C@@H]1O)[C@@](C)(CO)CCC3	> 50	Non-Toxic
C=C[C@]1(C)C=C2[C@@H](O)C[C@H]3C(C)(C)CC[C@@H](OC(C)=O)[C@]3(C)[C@@]2(O)CC1	25	Non-Toxic
C=C[C@]1(C)C=C2[C@@H](O)[C@H](O)[C@H]3C(C)(C)CC[C@@H](OC(C)=O)[C@]3(C)[C@@]2(O)CC1	35	Non-Toxic
C=C[C@@]1(C)CCc2c3c(cc(O)c2[C@H]1O)[C@](C)(CO)CCC3	> 50	Non-Toxic
C=C[C@]1(C)C=C2[C@H]3O[C@@H](O)[C@@]4(CCCC(C)(C)[C@@H]4[C@H]3OC(C)=O)[C@@]2(O)CC1	33	Non-Toxic
C=C[C@@]1(C)CCc2c3c(cc(O)c2[C@H]1OC)C(C)(C)CCC3	37	Non-Toxic
C=C[C@@]1(C)CCC2=C(C1)C(=O)C[C@H]1C(C)(C)[C@H](O)C[C@@H](O)[C@]21C	> 50	Non-Toxic
C=C[C@]1(C)C=C2[C@@H](OC(C)=O)[C@H]3OC(=O)[C@@]4(CCCC(C)(C)[C@H]34)[C@@]2(O)CC1	35	Non-Toxic
C=C[C@@]1(C)C[C@H](O)c2c3c(cc(O)c2[C@H]1OC)C(C)(C)CCC3	38	Non-Toxic
C=C[C@@]1(C)CC[C@@]2(O)C(=C[C@H](O)[C@H]3C(C)(C)CC[C@@H](OC(C)=O)[C@@]32C)[C@H]1O	> 50	Non-Toxic
C=C[C@@]1(C)CCc2c3c(cc(O)c2[C@H]1O)C(C)(C)CCC3	> 50	Non-Toxic
C=C[C@]1(C)C=C2[C@](O)(CC1)[C@@]13CCCC(C)(C)[C@@H]1[C@@H](OC(C)=O)[C@]2(O)OC3	30	Non-Toxic
C=C[C@@]1(C)CCc2c3c(cc(O)c2C1=O)[C@](C)(CO)CCC3	19	Non-Toxic
C=C[C@@]1(C)CCc2c3c(cc(O)c2[C@H]1OC)[C@](C)(CO)CCC3	42	Non-Toxic
C=C[C@@]1(C)CCc2c3c(cc(O)c2[C@@H]1OC)[C@@](C)(CO)CCC3	42	Non-Toxic
C=C[C@@]1(C)CCc2c3c(cc(O)c2[C@@H]1O)C(C)(C)CCC3	40	Non-Toxic
C=C[C@]1(C)C=C2C(=O)C[C@H]3C(C)(C)CCC[C@]3(C(=O)O)[C@@]2(O)CC1 [SPHAEROPSIDIN C]	31	Non-Toxic
